# According to paper PMC11571108, “Targeting PfCLK3 with Covalent Inhibitors: A Novel Strategy for Malaria Treatment” (Journal of Medicinal Chemistry, 2024):
# Values joined by “and” are separate entries in the source; they are usually repeats but may differ in a detail not shown here. Identical values can stand only once.
# Tests used:
# CDK6/cyclinD3(h) = CDK6/cyclinD3(h) (Homo sapiens, UniProt Q00534); experiment: biochemical
# Method: (§2) Compounds were evaluated using Eurofins Discovery’s KinaseProfiler Diversity Panel of 58 representative kinases. KinaseProfiler is a radiometric assay using [γ-^33P]-ATP to measure the phosphorylation of individual kinase substrates. A representative protocol for Abl is given below.
# (§3) The reaction is initiated by the addition of the Mg/ATP mix. After incubation for 40 min at room temperature, the reaction is stopped by the addition of phosphoric acid to a concentration of 0.5%.
# [1] = biological target: T1, recombinant full-length PfCLK3 (Plasmodium falciparum, UniProt Q8IIL5); experiment: TR-FRET protein kinase assay; type: biochemical; settings: Apparent pIC50 (PfCLK3), 15 min preincubation, 2 h incubation
# T1 sequence (Q8IIL5 1-699): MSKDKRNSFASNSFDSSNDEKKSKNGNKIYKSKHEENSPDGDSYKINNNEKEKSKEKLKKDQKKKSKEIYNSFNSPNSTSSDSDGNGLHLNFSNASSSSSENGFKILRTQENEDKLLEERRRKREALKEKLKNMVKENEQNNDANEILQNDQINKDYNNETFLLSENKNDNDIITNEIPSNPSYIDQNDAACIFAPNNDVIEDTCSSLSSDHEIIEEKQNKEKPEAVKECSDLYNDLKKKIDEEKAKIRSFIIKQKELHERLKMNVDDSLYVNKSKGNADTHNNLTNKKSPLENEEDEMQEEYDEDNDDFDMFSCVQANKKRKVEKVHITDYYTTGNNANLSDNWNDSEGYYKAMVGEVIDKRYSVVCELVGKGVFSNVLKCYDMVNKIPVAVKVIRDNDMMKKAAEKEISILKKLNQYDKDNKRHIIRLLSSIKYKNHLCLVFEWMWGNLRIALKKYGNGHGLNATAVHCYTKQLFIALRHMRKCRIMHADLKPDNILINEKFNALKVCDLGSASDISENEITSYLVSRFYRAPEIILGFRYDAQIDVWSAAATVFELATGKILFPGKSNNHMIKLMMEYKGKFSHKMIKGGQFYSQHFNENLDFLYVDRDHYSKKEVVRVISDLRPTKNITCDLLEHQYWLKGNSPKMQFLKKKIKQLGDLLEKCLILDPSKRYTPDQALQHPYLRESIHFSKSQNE
# Method: To a black 384-well plate was added 2.5 μL of each concentration of inhibitor serially diluted 1 in 3, 11 times from a 40 μM (4×) top concentration normalized to 4% DMSO, and 5 μL of 50 nM (2×) recombinant PfCLK3. Both were dissolved in kinase buffer (50 mM HEPES 7.4, 1 mM EGTA, 1 mM MgCl2, 0.01% Tween, and 1 mM TCEP). […] 5 μL of detection mix (30 mM EDTA, 3 nM AntiMBP in 1× PerkinElmer Lance detection buffer) was added to quench the kinase reaction, and plates were incubated at room temperature in the dark for 1 h.
# CK2α2(h) = CK2α2(h) (Homo sapiens, UniProt P19784); experiment: biochemical
# Method: as §2, §3
# CHK1(h) = CHK1(h) (Homo sapiens, UniProt O14757); experiment: biochemical
# Chain of CHK1(h) (O14757 whole entry): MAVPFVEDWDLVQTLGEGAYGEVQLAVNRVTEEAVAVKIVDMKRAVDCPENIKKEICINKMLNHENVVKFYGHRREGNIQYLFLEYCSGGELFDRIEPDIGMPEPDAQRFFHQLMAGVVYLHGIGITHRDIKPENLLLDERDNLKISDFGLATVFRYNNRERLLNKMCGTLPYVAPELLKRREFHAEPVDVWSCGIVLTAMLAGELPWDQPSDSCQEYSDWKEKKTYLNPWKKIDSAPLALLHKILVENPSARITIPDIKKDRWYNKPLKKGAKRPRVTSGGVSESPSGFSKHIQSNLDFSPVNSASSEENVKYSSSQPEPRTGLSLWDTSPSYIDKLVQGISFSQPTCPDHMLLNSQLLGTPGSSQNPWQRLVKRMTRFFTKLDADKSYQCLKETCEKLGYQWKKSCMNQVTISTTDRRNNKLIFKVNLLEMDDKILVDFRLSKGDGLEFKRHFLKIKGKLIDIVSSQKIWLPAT
# Method: as §2, §3
# AMPKα1(h) = AMPKα1(h) (Homo sapiens, UniProt Q13131); experiment: biochemical
# Method: as §2, §3
# CK1γ1(h) = CK1γ1(h) (Homo sapiens, UniProt Q9HCP0); experiment: biochemical
# Method: as §2, §3
# Abl(h) = Abl(h) (Homo sapiens, UniProt P00519); experiment: biochemical
# Method: as §2, §3
# physchem = settings: pH 7.5, GSH t1/2, 37 °C, 10:1 ratio GSH:compound
# full-length PfCLK3 = settings: PfCLK3 5 μg; triplicate wells
# Method: To a 384-well thermal shift plate, 5 μL protein thermal shift buffer (Thermo Fisher Scientific), 5 μg full length PfCLK3 (4.17 μL, 1.2 mg/mL), 8.13 μL thermal shift buffer (Thermo Fisher Scientific), 0.2 μL 10 mM compound or vehicle (DMSO), and 2.5 μL protein thermal shift dye (Thermo Fisher Scientific) were added in triplicate. […] 5 Qpcr (Thermo Fisher Scientific). Fluorescence was recorded as proteins unfolded. The Boltzmann distribution was calculated and Tm obtained using Protein Thermal Shift Software v1.4 (Thermo Fisher Scientific).
# CDK7/cyclinH/MAT1(h) = CDK7/cyclinH/MAT1(h) (Homo sapiens, UniProt P50613); experiment: biochemical
# Chain of CDK7/cyclinH/MAT1(h) (P50613 whole entry): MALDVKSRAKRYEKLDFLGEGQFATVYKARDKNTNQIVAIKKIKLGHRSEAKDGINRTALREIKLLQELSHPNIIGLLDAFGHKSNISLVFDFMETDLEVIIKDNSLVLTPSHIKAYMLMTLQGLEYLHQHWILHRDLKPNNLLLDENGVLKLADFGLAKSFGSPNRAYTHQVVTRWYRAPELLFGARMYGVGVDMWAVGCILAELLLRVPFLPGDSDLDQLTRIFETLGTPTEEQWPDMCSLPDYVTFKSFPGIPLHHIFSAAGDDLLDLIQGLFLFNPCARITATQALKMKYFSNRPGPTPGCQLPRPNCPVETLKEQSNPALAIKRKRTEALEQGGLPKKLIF
# Chain of CDK7/cyclinH/MAT1(h) (P51946 whole entry partner): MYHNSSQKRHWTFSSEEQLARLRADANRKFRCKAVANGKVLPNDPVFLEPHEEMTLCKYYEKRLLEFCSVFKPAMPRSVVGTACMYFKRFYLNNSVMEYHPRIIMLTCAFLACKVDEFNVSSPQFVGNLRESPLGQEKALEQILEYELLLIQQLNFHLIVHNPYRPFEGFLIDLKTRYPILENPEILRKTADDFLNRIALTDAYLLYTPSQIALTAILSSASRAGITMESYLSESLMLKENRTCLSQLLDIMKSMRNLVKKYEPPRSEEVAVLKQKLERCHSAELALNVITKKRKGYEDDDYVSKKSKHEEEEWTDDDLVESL
# Chain of CDK7/cyclinH/MAT1(h) (P51948 whole entry partner): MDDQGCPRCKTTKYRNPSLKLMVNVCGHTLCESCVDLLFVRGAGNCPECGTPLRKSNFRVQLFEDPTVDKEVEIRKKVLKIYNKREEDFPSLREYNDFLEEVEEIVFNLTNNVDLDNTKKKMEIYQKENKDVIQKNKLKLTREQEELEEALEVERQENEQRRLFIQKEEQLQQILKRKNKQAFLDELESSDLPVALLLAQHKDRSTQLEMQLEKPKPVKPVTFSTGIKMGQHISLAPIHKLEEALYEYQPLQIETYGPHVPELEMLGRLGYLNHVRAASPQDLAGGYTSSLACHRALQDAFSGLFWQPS
# Method: as §2, §3
# c-RAF(h) = c-RAF(h) (Homo sapiens, UniProt P04049); experiment: biochemical
# Chain of c-RAF(h) (P04049 whole entry): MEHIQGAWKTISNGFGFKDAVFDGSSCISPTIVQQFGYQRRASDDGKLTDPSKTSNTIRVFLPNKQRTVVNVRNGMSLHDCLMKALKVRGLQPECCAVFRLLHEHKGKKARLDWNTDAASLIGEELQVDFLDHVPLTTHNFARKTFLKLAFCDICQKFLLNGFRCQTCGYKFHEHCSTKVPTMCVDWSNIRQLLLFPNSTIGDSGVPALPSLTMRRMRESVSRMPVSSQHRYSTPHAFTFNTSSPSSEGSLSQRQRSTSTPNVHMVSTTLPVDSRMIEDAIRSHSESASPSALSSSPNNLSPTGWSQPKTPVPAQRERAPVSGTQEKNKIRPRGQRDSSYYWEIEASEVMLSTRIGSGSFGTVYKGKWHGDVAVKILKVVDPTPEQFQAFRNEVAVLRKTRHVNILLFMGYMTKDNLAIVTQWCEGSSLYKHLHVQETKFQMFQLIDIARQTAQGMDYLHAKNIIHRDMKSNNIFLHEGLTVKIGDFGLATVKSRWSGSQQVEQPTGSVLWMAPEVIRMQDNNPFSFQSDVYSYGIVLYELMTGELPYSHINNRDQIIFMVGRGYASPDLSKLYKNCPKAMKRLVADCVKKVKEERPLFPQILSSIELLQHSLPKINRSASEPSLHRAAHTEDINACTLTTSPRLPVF
# Method: as §2, §3
# Aurora-A(h) = Aurora-A(h) (Homo sapiens, UniProt O14965); experiment: biochemical
# Chain of Aurora-A(h) (O14965 whole entry): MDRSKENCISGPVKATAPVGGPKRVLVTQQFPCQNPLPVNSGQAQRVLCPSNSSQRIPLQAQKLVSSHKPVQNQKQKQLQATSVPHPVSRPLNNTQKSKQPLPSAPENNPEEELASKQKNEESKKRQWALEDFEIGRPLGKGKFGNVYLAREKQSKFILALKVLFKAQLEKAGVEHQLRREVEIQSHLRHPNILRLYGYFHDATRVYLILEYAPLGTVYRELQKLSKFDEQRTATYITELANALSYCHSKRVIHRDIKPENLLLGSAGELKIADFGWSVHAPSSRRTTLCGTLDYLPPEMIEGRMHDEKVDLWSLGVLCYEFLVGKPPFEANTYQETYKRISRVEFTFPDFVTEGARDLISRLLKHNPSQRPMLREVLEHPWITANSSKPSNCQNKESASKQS
# Method: as §2, §3
# CaMKI(h) = CaMKI(h) (Homo sapiens, UniProt Q14012); experiment: biochemical
# Method: as §2, §3
# [2] = biological target: T2, PI3 Kinase (p110a/p85a)(h) (Homo sapiens, UniProt P42336); experiment: KinaseProfiler radiometric assay; type: biochemical; settings: 1 µM compound
# T2 construct: purchased Eurofins Discovery KinaseProfiler
# From the text: (§1) A representative protocol for Abl is given below.
# [3] = biological target: T3, PI3 Kinase (p110d/p85a)(h) (Homo sapiens, UniProt O00329); experiment: KinaseProfiler radiometric assay; type: biochemical; settings: 1 µM compound
# T3 construct: purchased Eurofins Discovery KinaseProfiler
# From the text: as §1
# [4] = biological target: T4, PI3 Kinase (p110b/p85a)(h) (Homo sapiens, UniProt P42338); experiment: KinaseProfiler radiometric assay; type: biochemical; settings: 1 µM compound
# T4 construct: purchased Eurofins Discovery KinaseProfiler
# From the text: as §1
# ALK(h) = ALK(h) (Homo sapiens, UniProt Q9UM73); experiment: biochemical
# Method: as §2, §3
# CDK1/cyclinB(h) = CDK1/cyclinB(h) (Homo sapiens, UniProt P06493); experiment: biochemical
# Method: as §2, §3
# DRAK1(h) = DRAK1(h) (Homo sapiens, UniProt Q9UEE5); experiment: biochemical
# Method: as §2, §3
# Microsomal stability = type: in vitro ADME; settings: human, liver microsomes, 0.5 mg/mL microsomes, 37 °C
# Method: Peak areas were determined from extracted ion chromatograms.
# ASK1(h) = ASK1(h) (Homo sapiens, UniProt Q99683); experiment: biochemical
# Chain of ASK1(h) (Q99683 whole entry): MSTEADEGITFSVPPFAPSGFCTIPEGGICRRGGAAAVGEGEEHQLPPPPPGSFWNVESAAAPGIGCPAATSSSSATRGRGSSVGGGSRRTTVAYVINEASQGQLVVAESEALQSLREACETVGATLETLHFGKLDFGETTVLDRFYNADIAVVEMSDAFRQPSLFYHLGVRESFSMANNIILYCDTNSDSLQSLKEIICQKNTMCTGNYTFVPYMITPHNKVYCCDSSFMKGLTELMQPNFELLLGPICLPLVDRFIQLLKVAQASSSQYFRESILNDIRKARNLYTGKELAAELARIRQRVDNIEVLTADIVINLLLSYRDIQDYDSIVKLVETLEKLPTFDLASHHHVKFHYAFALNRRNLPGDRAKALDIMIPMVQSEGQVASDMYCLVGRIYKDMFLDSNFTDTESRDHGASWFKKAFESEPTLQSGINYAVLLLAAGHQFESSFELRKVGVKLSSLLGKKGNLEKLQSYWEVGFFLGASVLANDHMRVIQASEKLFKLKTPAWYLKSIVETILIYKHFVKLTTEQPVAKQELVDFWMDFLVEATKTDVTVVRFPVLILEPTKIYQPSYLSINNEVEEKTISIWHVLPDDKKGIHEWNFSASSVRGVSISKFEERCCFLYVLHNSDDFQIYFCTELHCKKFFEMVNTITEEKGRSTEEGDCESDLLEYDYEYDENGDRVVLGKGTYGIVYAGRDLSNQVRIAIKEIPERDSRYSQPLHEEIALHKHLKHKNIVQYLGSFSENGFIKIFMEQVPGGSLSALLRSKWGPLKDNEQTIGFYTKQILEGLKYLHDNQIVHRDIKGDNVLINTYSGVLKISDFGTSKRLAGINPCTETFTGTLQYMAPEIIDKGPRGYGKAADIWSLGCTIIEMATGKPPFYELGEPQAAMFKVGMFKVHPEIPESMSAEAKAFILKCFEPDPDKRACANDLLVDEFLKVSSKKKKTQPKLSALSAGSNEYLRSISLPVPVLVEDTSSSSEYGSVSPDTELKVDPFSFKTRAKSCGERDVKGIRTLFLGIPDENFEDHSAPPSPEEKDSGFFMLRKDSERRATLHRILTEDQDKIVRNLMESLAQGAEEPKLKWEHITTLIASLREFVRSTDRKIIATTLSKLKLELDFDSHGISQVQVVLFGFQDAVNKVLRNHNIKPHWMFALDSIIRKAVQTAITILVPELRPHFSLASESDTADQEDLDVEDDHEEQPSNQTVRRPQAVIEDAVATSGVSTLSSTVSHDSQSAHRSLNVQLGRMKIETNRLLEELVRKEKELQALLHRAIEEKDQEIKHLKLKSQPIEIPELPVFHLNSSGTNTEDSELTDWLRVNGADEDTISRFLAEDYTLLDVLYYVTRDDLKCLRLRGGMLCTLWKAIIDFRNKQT
# Method: as §2, §3
# CDK9/cyclin T1(h) = CDK9/cyclin T1(h) (Homo sapiens, UniProt P50750); experiment: biochemical
# Chain of CDK9/cyclin T1(h) (P50750 whole entry): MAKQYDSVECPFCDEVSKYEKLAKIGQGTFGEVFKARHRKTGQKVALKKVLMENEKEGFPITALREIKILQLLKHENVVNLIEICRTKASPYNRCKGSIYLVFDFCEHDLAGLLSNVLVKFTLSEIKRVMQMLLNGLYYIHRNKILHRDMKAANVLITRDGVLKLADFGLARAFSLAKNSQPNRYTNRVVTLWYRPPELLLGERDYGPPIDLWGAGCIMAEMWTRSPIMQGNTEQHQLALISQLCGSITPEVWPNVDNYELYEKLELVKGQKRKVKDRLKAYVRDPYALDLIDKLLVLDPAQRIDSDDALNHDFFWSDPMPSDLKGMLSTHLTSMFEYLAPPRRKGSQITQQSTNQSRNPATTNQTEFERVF
# Chain of CDK9/cyclin T1(h) (O60563 whole entry partner): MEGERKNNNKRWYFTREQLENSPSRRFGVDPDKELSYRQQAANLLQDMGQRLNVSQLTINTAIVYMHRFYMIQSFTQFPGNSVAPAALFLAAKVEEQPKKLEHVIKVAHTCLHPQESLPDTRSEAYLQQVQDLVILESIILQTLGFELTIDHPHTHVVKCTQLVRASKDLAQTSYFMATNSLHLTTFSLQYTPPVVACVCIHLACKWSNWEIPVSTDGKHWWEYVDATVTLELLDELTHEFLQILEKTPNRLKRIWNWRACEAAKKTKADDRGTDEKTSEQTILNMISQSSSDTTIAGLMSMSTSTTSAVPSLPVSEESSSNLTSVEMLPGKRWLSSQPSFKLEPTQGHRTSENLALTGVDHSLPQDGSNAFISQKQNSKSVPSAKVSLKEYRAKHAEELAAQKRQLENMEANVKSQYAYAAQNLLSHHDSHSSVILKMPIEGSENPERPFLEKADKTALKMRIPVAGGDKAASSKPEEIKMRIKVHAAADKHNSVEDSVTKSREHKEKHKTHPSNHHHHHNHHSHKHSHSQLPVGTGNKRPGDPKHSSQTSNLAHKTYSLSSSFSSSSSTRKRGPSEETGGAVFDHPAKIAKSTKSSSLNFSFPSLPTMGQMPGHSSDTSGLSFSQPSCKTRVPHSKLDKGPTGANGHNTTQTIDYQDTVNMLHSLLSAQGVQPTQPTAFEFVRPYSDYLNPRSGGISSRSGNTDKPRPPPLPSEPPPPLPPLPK
# Method: as §2, §3
# CDK2/cyclinA(h) = CDK2/cyclinA(h) (Homo sapiens, UniProt P24941); experiment: biochemical
# Method: as §2, §3
smiles,measurement,setting,value
"CCN(CC)Cc1ccc(OC)c(-c2cc3c(-c4ccc(C(=O)O)c(C(C)C)c4)ccnc3[nH]2)c1 [Compound 1, TCMDC-135051]",remaining activity at 1 µM,CDK6/cyclinD3(h),82%
same,IC50,[1]; [ATP] = 500 μM,87.1 nM
same,IC50,[1]; [ATP] = 3 mM,447 nM
same,IC50,[1]; [ATP] = Km (5 μM),7.76 nM
same,remaining activity at 1 µM,CK2α2(h),39%
same,remaining activity at 1 µM,CHK1(h),101%
same,remaining activity at 1 µM,AMPKα1(h),46%
same,remaining activity at 1 µM,CK1γ1(h),85%
same,remaining activity at 1 µM,Abl(h),68%
same,half-life at 1 mM,physchem,> 72 h
same,Tm B,full-length PfCLK3,66.66 and 66.67 and 66.65
same,remaining activity at 1 µM,CDK7/cyclinH/MAT1(h),102%
same,remaining activity at 1 µM,c-RAF(h),106%
same,remaining activity at 1 µM,Aurora-A(h),11%
same,remaining activity at 1 µM,CaMKI(h),100%
same,remaining activity at 1 µM,[2],100%
same,remaining activity at 1 µM,[3],73%
same,remaining activity at 1 µM,[4],99%
same,remaining activity at 1 µM,ALK(h),30%
same,remaining activity at 1 µM,CDK1/cyclinB(h),15%
same,remaining activity at 1 µM,DRAK1(h),83%
same,microsomal CLint at 1 μM,Microsomal stability; read-out: HLM CLint (intrinsic clearance),< 7.5 µL/min/mg
same,half-life at 1 μM,Microsomal stability; read-out: HLM t1/2,> 3.07 h
same,remaining activity at 1 µM,ASK1(h),92%
same,remaining activity at 1 µM,CDK9/cyclin T1(h),6%
same,remaining activity at 1 µM,CDK2/cyclinA(h),30%
